Data: article PMC10786919, “Design-rules for stapled peptides with in vivo activity and their application to Mdm2/X antagonists” (Nature Communications, 2024)
In brackets after ≈: the same amount, converted by molar mass. Like-named read-outs stand apart in the source and are kept apart here. Positions of bridges follow the written chain, without caps; N, C: chain ends. Non-standard residues stand in square brackets, D forms with d. Residues, ends and D or L forms follow the SMILES beside them. R8 = C=CCCCCCC[C@@](C)(N)C(=O)O; S5 = C=CCCC[C@](C)(N)C(=O)O; Ahx = NCCCCCC(=O)O

How the values were obtained:
HCT116 cells = experiment: Lactate dehydrogenase (LDH) release assay; format: cell-based
Procedure, shortened: (§1)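 A p53 β-lactamase reporter HCT116 line, 8000 cells per well, is exposed to test compounds at 0.5% final DMSO and scored for LDH leakage.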

[1] = Lactate dehydrogenase (LDH) release assay; format: cell-based
Procedure, shortened: as §1

human Mdm2 1–125 = target: T1, human Mdm2 1–125 (Homo sapiens, UniProt Q00987); experiment: Mdm2 binding by competitive fluorescence anisotropy assay (FP binding); settings: read-out: FP binding assay KD
T1 construct: GST (N); His6 (internal); TEV cleavage site (ENLYFQG) (internal); made in house; host or cells: BL21 (DE3) Rosetta T1R Escherichia coli
T1 sequence (Q00987 with tags, fused parts or gaps): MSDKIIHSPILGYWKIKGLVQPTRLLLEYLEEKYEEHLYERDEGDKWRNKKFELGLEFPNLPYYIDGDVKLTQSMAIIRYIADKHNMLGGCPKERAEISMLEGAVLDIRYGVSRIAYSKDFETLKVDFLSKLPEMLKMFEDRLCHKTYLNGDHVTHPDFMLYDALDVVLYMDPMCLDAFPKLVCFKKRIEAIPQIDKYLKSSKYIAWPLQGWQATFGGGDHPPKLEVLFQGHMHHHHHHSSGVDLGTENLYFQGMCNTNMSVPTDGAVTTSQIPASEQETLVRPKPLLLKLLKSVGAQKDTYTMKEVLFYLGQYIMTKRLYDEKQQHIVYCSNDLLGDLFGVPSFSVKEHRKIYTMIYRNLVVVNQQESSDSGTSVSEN
Text: The TEV (tobacco etch virus) cleavage site was changed from ENLYFQS to ENLYFQG to give a fusion protein with the following sequence:
[P] is the protein concentration (Mdm2), [L] is the labeled peptide concentration, r is the anisotropy measured, r0 is the anisotropy of the free peptide, rb is the anisotropy of the Mdm2–FAM-labeled peptide complex, Kd is the dissociation constant, [L]t is the total FAM labeled peptide concentration, and [P]t is the total Mdm2 concentration. […] This value was then used to determine apparent Kd values of the respective competing ligands in subsequent competition assays in fluorescence anisotropy experiments.
The competing molecules were then titrated against the complex of the FAM-labeled peptide and protein. Apparent Kd values were determined by fitting the experimental data to equations shown below:2 r=ro+(rb−ro)×2(d^2−3e)cos(θ/3)−9/3Kd1+2(d^2−3e)cos(θ/3)−d 3 d=Kd1+Kd2+[L]st+[L]t−Pt 4 e=Lt−PtKd1+Lst+PtKd2+Kd1Kd2 5 f=−Kd1Kd2[P]t 6 θ=arcos−2d^3+9de−27f/2(d^2−3e)^3
[L]st and [L]t denote labeled ligand and total unlabeled ligand input concentrations, respectively. Kd2 is the dissociation constant of the interaction between the unlabeled ligand and the protein. In all competition experiments, it is assumed that [P]t > [L]st, otherwise considerable amounts of free labeled ligand would always be present and would interfere with measurements. […] The FAM-labeled peptide was dissolved in dimethyl sulfoxide (DMSO) at 1 mM and diluted into experimental buffer. Readings were carried out with an Envision Multilabel Reader (PerkinElmer). […] Curve-fitting was carried out using Prism 4.0 (GraphPad). […] Negative control titrations of the ligands under investigation were also carried out with the fluorescently labeled peptide (in the absence of Mdm2) to ensure no interactions were occurring between the ligands and the FAM-labeled peptide. […] Measurements were taken a minimum of three times (biological replicates) and values are reported as geometric means of the replicates.

[2] = tested on: p53 responsive β-lactamase reporter in HCT116 cells; experiment: cells; format: cell-based; settings: read-out: p53 reporter assay EC50
Procedure, shortened: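 HCT116 cells stably carrying a p53-responsive β-lactamase reporter, seeded at 8000 cells/well, with 0.5% DMSO final. Reporter activity read by ToxBLAzer Dual Screen. Values are geometric means of at least three biological replicates.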

[3] = tested on: Jump-In T-REx CHO-K1 BLA cells; experiment: cells; format: cell-based; settings: for EC50: read-out: TETCHO: Counterscreen EC50
EPSA = format: physicochemical; settings: EPSA
in vitro = settings: Nanoclick permeability assay EC50
Procedure, shortened: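 Azido-peptide permeability was read as loss of NanoBRET signal (donor 450 nm, acceptor 610 nm) after adding NanoBret618-azide at 10 μM final.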

[4] = Solubility assay (kinetic solubility, PBS pH 7); format: physicochemical; settings: pH 7, aqueous buffer, kinetic from dmso stock, pH 7, PBS; read-out: Solubility
Procedure, shortened: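 Quantitation uses an external standard at 100 µM, prepared from 10 mM stock in acetonitrile:methanol:DMSO (10:80:10). Solubility (µM) = (peak area of sample ÷ peak area of standard) × standard concentration.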

[5] = Experimental LogD (partition coefficient); settings: not stated, Partition Coeff LogD
Ca Ski cell line = settings: 72 h
Procedure, shortened: (§2)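 Compound dilution series (10 points, 3-fold, 10 mM top stock in DMSO) tested on overnight-plated Ca Ski cells in RPMI1640/10% FBS and on blasticidin-selected p53RE-bla HCT-116 cells in McCoy's 5A; read-out was CellTiter-Glo 2.0 luminescence after room-temperature equilibration.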

[6] = tested on: CellSensor p53RE-bla HCT-116 Cell Line; settings: 72 h
Procedure, shortened: as §2

Structure (SMILES)	LDH: Cytotoxicity assay % Effect (HCT116 cells) [%]	EC50 ([1]; LDH: Cytotoxicity assay EC50) [µM]	Kd (human Mdm2 1–125) [µM]	EC50 ([2]; 0% FBS 4Hr) [µM]	TETCHO: Counterscreen % Effect ([3]; 0% FBS 4Hr) [%]	EC50 ([3]; 0% FBS 4Hr) [µM]	EPSA (EPSA) [A^2]	cell entry EC50 (in vitro) [µM]	solubility kinetic [4] [µM]	EC50 ([1]; LDH: Cytotoxicity assay: EC50) [µM]	logD [5]	EC50 (Ca Ski cell line) [µM]	EC50 [6] [µM]	EC50 ([2]; 0% FBS 16Hr) [µM]	TETCHO: Counterscreen % Effect ([3]; 0% FBS 16Hr) [%]
CC(C)C[C@@H]1NC(=O)[C@H](C)NC(=O)[C@H](Cc2c[nH]c3ccccc23)NC(=O)[C@H](Cc2ccc(O)cc2)NC(=O)[C@H](CCC(=O)O)NC(=O)[C@](C)(NC(=O)[C@H](Cc2ccccc2)NC(=O)[C@H](CO)NC(=O)[C@@H](NC(=O)[C@H](CO)NC(=O)CNC(=O)[C@@H](N)CO)[C@@H](C)O)CCCCCCC=CCCC[C@@](C)(C(N)=O)NC(=O)[C@H](CC(C)C)NC1=O [MP-132]	1.056	> 50	0.0459	39.6	9.469	> 50									
CC(=O)N[C@H](C(=O)N[C@@H](CO)C(=O)N[C@@H](Cc1ccccc1)C(=O)N[C@]1(C)CCCCCCC=CCCC[C@@](C)(C(N)=O)NC(=O)[C@H](CC(C)C)NC(=O)[C@H](CC(C)C)NC(=O)[C@H](C)NC(=O)[C@H](Cc2c[nH]c3ccccc23)NC(=O)[C@H](Cc2ccc(O)cc2)NC(=O)[C@H](Cc2c[nH]cn2)NC1=O)[C@@H](C)O [MP-138] (Ac-TSF[R8]HYWALL[S5]-NH2; staple 4-11)	0.2053	> 50	0.0879	4.9	24.03	> 50									
CC(=O)N[C@H](C(=O)N[C@@H](CO)C(=O)N[C@@H](Cc1ccccc1)C(=O)N[C@]1(C)CCCCCCC=CCCC[C@@](C)(C(=O)N[C@@H](CCC(=O)O)C(N)=O)NC(=O)[C@H](CC(C)C)NC(=O)[C@H](CC(C)C)NC(=O)[C@H](C)NC(=O)[C@H](Cc2c[nH]c3ccccc23)NC(=O)[C@H](Cc2ccc(O)cc2)NC(=O)[C@H](CCC(=O)O)NC1=O)[C@@H](C)O [MP-139]	20.87	38.8	< 0.001	6.25	1.538	> 50									
CC(=O)N[C@H](C(=O)N[C@@H](CO)C(=O)N[C@@H](Cc1ccccc1)C(=O)N[C@]1(C)CCCCCCC=CCCC[C@@](C)(C(=O)N[C@@H](CO)C(=O)N[C@@H](C)C(=O)N[C@@H](C)C(=O)N[C@@H](CCC(=O)O)C(N)=O)NC(=O)[C@H](CC(C)C)NC(=O)[C@H](CC(C)C)NC(=O)[C@H](C)NC(=O)[C@H](Cc2c[nH]c3ccccc23)NC(=O)[C@H](Cc2ccc(O)cc2)NC(=O)[C@H](CCC(=O)O)NC1=O)[C@@H](C)O [MP-141]	8.71	> 50	< 0.001	5.36	2.385	> 50									
CC(=O)N[C@@H](CCCCN=[N+]=[N-])C(=O)NCCC(=O)N[C@@H](CC(C)C)C(=O)N[C@H](C(=O)N[C@@H](Cc1ccccc1)C(=O)N[C@]1(C)CCCCCCC=CCCC[C@@](C)(C(=O)N[C@@H](CO)C(=O)N[C@@H](C)C(=O)N[C@@H](C)C(N)=O)NC(=O)[C@H](CC2CCC2)NC(=O)[C@H](CCC(N)=O)NC(=O)[C@H](C)NC(=O)[C@H](Cc2c[nH]c3ccccc23)NC(=O)[C@H](CCC(=O)O)NC(=O)[C@H](CCC(=O)O)NC1=O)[C@@H](C)O [MP-842]							216	0.297	157 (≈ 304 µg/mL)	> 50.7	2.25	> 49.8	23.4		
CC(=O)N[C@@H](CCCCN)C(=O)N[C@@H](CCCCN)C(=O)N[C@@H](CCCCN)C(=O)NCCCCCC(=O)N[C@H](C(=O)N[C@@H](CO)C(=O)N[C@@H](Cc1ccccc1)C(=O)N[C@]1(C)CCCCCCC=CCCC[C@@](C)(C(=O)N[C@@H](CCC(=O)O)C(=O)N[C@@H](CC(N)=O)C(=O)N[C@@H](Cc2ccccc2)C(N)=O)NC(=O)[C@H](CC(C)C)NC(=O)[C@H](CC(C)C)NC(=O)[C@H](C)NC(=O)[C@H](Cc2c[nH]c3ccccc23)NC(=O)[C@H](Cc2ccc(O)cc2)NC(=O)[C@H](CCC(=O)O)NC1=O)[C@@H](C)O [MP-5364] (Ac-KKK[Ahx]TSF[R8]EYWALL[S5]ENF-NH2; staple 8-15)		> 50	0.0391	2.55	62.33	31.9								4.96	3.12
